What was measured:
[1] = test system: patients diagnosed with idiopathic central sleep apnea; test: Hospital based clinical trial of zolpidem: follow-up polysomnogram and Epworth Sleepiness Scale; format: in vivo, human
Experimental: Idiopathic central sleep apnea was defined by central apnea and hypopnea index (CAHI)≧10 events per hour of sleep, and obstructive apnea/hypopnea index ≦5 events per hour of sleep. An apnea was defined as a cessation or reduction in peak oronasal airflow≧70% of baseline, lasting ≧15 s. Hypopnea was defined as a reduction in peak oronasal airflow ≧50%, ≧70% of baseline for ≧15 s, along with a ≧4% drop in SpO2 relative to pre-event baseline value. The apnea/hypopnea index was calculated for all events relative to total sleep time and documented separately for central and obstructive events. Central apneas and hypopneas comprised the central and obstructive apneas and hypopneas plus mixed apneas and hypopneas comprised the obstructive apnea-hypopnea index (OAHI). Exclusion criteria comprise such as clinical or echocardiographic diagnosis of systolic heart failure, diastolic cardiac dysfunction, or a history of transient ischemic attack or stroke. Those with a typical pattern of Cheyne Stokes respiration during sleep were also excluded. Patients with obstructive sleep apnea with an Apnea-Hypopnea Index of (AHI) ≧5 events per hour prior to continuous positive airway pressure device (CPAP) use, or a history of restless legs syndrome/periodic leg movements were also excluded. […] Patients with hypercapnic lung disease or those with obesity hypoventilation syndrome were also excluded. Subjects were given the Epworth Sleepiness Scale (ESS), and a physical exam followed by an 8-h diagnostic polysomnogram (PSG). […] Outpatient monitoring was conducted every four weeks to assess patients for side effects and for evaluation of daytime sleepiness, using the ESS. […] Nocturnal polysomnographic assessment using the Grass Aurora system was performed in a standard way consisting of an electroencephalogram (EEG), an electrooculogram (EOG), a submental electromyogram (EMG), an anterior tibialis EMG, and an electrocardiogram (ECG) (Rechtschaffen A, Kales A. A manual of standardized terminology, techniques and scoring system for sleep stages in human subjects. Washington D.C.: US Government Printing Office. National Institute of Health Publication; 1968). Nasal-oral airflow was measured using thermocouples. Abdominal and thoracic respiratory movements were recorded with respiratory effort belts using piezoelectric crystal sensors. Transcutaneous oxyhemoglobin saturation (SpO2) was monitored with finger pulse oximetry. A recording of sleep position was performed using video monitoring and snoring was recorded using a snore sensor. An experienced sleep physician, blinded to the study protocol, scored sleep recordings. Sleep architecture was analyzed according to standardized way (Rechtschaffen A, Kales A. A manual of standardized terminology, techniques and scoring system for sleep stages in human subjects. Washington D.C.: US Government Printing Office. National Institute of Health Publication; 1968). Unstimulated saliva samples were collected and biomarker levels measured in the morning prior to beginning and after 150 days of study. Ten minutes prior to collection of unstimulated saliva samples, individuals were asked to rinse orally with water. At the time of sample collection, study members were asked to relax for 5-15 minutes. They were then seated in a bent forward position in an ordinary chair and asked to put their tongues on the lingual surfaces of the upper incisors and allow the saliva to drip into sterile plastic (glass) tubes treated with […] of 2% sodium azide solution to prevent microbial decomposition of saliva. The tubes were held to the lower lip for 10 minutes resulting in a collection of 1-5 ml of saliva per individual.

[2] = test system: patients with idiopathic central sleep apnea; test: Salivary biomarker levels before and after zolpidem treatment (commercial kits, NMR); format: in vivo, human; conditions: unstimulated saliva, morning, after 150 days of study, mean
Experimental: Idiopathic central sleep apnea was defined by central apnea and hypopnea index (CAHI)≧10 events per hour of sleep, and obstructive apnea/hypopnea index ≦5 events per hour of sleep. An apnea was defined as a cessation or reduction in peak oronasal airflow≧70% of baseline, lasting ≧15 s. Hypopnea was defined as a reduction in peak oronasal airflow ≧50%, ≧70% of baseline for ≧15 s, along with a ≧4% drop in SpO2 relative to pre-event baseline value. The apnea/hypopnea index was calculated for all events relative to total sleep time and documented separately for central and obstructive events. Central apneas and hypopneas comprised the central and obstructive apneas and hypopneas plus mixed apneas and hypopneas comprised the obstructive apnea-hypopnea index (OAHI). Exclusion criteria comprise such as clinical or echocardiographic diagnosis of systolic heart failure, diastolic cardiac dysfunction, or a history of transient ischemic attack or stroke. Those with a typical pattern of Cheyne Stokes respiration during sleep were also excluded. Patients with obstructive sleep apnea with an Apnea-Hypopnea Index of (AHI) ≧5 events per hour prior to continuous positive airway pressure device (CPAP) use, or a history of restless legs syndrome/periodic leg movements were also excluded. Patients with prior use of sedative agents such as zolpidem, acetazolamide, theophylline, medroxyprogesterone, or any opiate, were also excluded from the study to exclude comparative bias when evaluating subjective response to zolpidem. Patients with hypercapnic lung disease or those with obesity hypoventilation syndrome were also excluded. Subjects were given the Epworth Sleepiness Scale (ESS), and a physical exam followed by an 8-h diagnostic polysomnogram (PSG). […] Outpatient monitoring was conducted every four weeks to assess patients for side effects and for evaluation of daytime sleepiness, using the ESS. […] Nocturnal polysomnographic assessment using the Grass Aurora system was performed in a standard way consisting of an electroencephalogram (EEG), an electrooculogram (EOG), a submental electromyogram (EMG), an anterior tibialis EMG, and an electrocardiogram (ECG) (Rechtschaffen A, Kales A. A manual of standardized terminology, techniques and scoring system for sleep stages in human subjects. Washington D.C.: US Government Printing Office. National Institute of Health Publication; 1968). Nasal-oral airflow was measured using thermocouples. Abdominal and thoracic respiratory movements were recorded with respiratory effort belts using piezoelectric crystal sensors. Transcutaneous oxyhemoglobin saturation (SpO2) was monitored with finger pulse oximetry. A recording of sleep position was performed using video monitoring and snoring was recorded using a snore sensor. An experienced sleep physician, blinded to the study protocol, scored sleep recordings. Sleep architecture was analyzed according to standardized way (Rechtschaffen A, Kales A. A manual of standardized terminology, techniques and scoring system for sleep stages in human subjects. Washington D.C.: US Government Printing Office. National Institute of Health Publication; 1968). Unstimulated saliva samples were collected and biomarker levels measured in the morning prior to beginning and after 150 days of study. Ten minutes prior to collection of unstimulated saliva samples, individuals were asked to rinse orally with water. At the time of sample collection, study members were asked to relax for 5-15 minutes. They were then seated in a bent forward position in an ordinary chair and asked to put their tongues on the lingual surfaces of the upper incisors and allow the saliva to drip into sterile plastic (glass) tubes treated with […] of 2% sodium azide solution to prevent microbial decomposition of saliva. The tubes were held to the lower lip for 10 minutes resulting in a collection of 1-5 ml of saliva per individual. […]

[3] = follow-up polysomnogram vs before treatment

Cc1ccc(-c2nc3ccc(C)cn3c2CC(=O)N(C)C)cc1 [zolpidem]
Excessive daytime sleepiness, measured by the Epworth Sleepiness Scale (ESS), change ([1]; after vs before treatment): decreased | central AHI (CAHI), change on follow-up polysomnogram [1, 3]: significantly decreased | sleep latency, change [1, 3]: decreased | stage 1, 3, and 4 sleep percentages, change [1, 3]: decreased | stage 2 percentages, change [1, 3]: increased | total number of arousals per hour, change with treatment use [1, 3]: decreased | Apnea hypopnea, After ([1]; mean, 10 patients, zolpidem 10 mg orally each night, repeat PSG six to ten weeks after initiation, Before 32.6, P 0.0001): 12.6 | Epworth sleepiness score, After ([1]; mean, zolpidem 10 mg orally each night, Before 13.7, P 0.0001): 6.5 | % TST stage 3 and 4, After ([1]; mean, zolpidem 10 mg orally each night, repeat PSG six to ten weeks, Before 1.3, P 0.05): 0.8% | Total sleep time, After ([1]; mean, zolpidem 10 mg orally each night, repeat PSG six to ten weeks, Before 4.6, P 0.005): 6.3 h | % TST REM, After ([1]; mean, zolpidem 10 mg orally each night, repeat PSG six to ten weeks, Before 10.4, P 0.05): 14.5% | % TST stage 1, After ([1]; mean, zolpidem 10 mg orally each night, repeat PSG six to ten weeks, Before 34.6, P 0.05): 21.3% | Salivary Arginine, After Treatment ([2]; Before Treatment 0.56, P 0.001): 0.45 µmol/mL | Salivary Creatine, After Treatment ([2]; Before Treatment 0.64, P 0.001): 0.47 µmol/mL | Salivary Tyrosine, After Treatment ([2]; Before Treatment 0.67, P 0.005): 0.54 µmol/mL | Salivary CgA, After Treatment ([2]; Before Treatment 13.68, P 0.0001): 4.23 pmol/mg protein | Salivary Dihomo-linolenate, After Treatment ([2]; Before Treatment 34.4, P 0.0001): 27.1 µmol/mL | Salivary Linolenate, After Treatment ([2]; Before Treatment 36.5, P 0.0001): 21.2 µmol/mL | Salivary 3-methyl-2-oxobutyrate, After Treatment ([2]; Before Treatment 61.2, P 0.005): 54.1 µmol/mL | Salivary Annexin 1, After Treatment ([2]; Before Treatment 72.1, P 0.0001): 56.3 ng/mL | Salivary BDNF, After Treatment ([2]; Before Treatment 345.8, P 0.0001): 234.5 pg/mL | Salivary B-endorphin, After Treatment ([2]; Before Treatment 2134.9, P 0.0001): 1235.3 pg/mL

Source: patent US20180003723A1, “METHODS AND SYSTEMS FOR […] DISORDERS” (OASIS DIAGNOSTICS CORPORATION, priority 2014, published 2018)
